{"source": "paper PMC11662004", "about": "(Communications Chemistry, 2024)", "molecular_target": "T1, NgTet1 (Naegleria gruberi, UniProt D2W6T1)", "T1 construct": "His6-tagged full-length Naegleria gruberi NgTet1 (321 a. a.) protein with a thrombin cleavage site; made in house; host or cells: E. coli BL21(DE3)", "T1 sequence (D2W6T1 1-321)": "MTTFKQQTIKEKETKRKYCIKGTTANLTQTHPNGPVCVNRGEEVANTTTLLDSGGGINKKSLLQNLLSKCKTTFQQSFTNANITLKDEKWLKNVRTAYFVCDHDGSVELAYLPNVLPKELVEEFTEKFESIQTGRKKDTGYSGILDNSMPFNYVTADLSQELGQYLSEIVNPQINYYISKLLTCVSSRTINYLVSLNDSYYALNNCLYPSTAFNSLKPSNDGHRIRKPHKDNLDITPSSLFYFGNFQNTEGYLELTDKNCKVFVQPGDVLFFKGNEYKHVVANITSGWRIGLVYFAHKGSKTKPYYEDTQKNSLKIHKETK", "format": "biochemical", "experimental": "Double-stranded 12 bp DNA oligomers were added at a final concentration of 20 µM. […]\nDouble-stranded DNA oligomers were added at a final concentration of 20 µM. […]\nAll ^1H NMR spectra were recorded at 25 °C using D2O as a reference for internal deuterium lock on a Bruker Avance III 700 MHz equipped with an inverse TCI cryoprobe in 3 or 5 mm diameter tubes with a total sample volume of 160 or 565 μL, respectively. The water signal was reduced using Perfect Echo excitation sculpting suppression. Chemical shifts are reported in ppm relative to D2O (δH = 4.70 ppm).\nSpectrometer settings were determined using a control sample containing all reaction components excluding enzyme. TET enzyme was added to an identical sample, and the resulting assay mixture was transferred to an NMR tube before deposition into the instrument. […] Spectrum recordings were carried out consecutively without delay. Data were processed using automated routines on MestReNova v14.2.0; signals of interest were integrated with absolute intensity scaling. ^1H NMR time courses reported in figures are representative results from two or three independent replicates.", "note": "Where two headings read alike, the source gives them in different places.", "data": [{"sequence": "AT DNA: double-stranded self-complementary 5'-ACC ACA TGT GGT-3', CpG replaced by ApT (DNA ACCACATGTGGT; DNA, backbone and methylation of C not given here; self-complementary duplex)", "values": [{"measurement": "V0 NgTet1", "setting": "20 µM DNA, 100 μM 2OG, 5 μM NgTet1", "value": 0.82, "unit": "µM/min"}, {"measurement": "succinate", "setting": "n = 1, time (min) 5HC DNA 5.9, AT DNA 5.81667, 5mC DNA 5.78333", "value": 4.127, "unit": "µM"}, {"measurement": "succinate", "setting": "n = 1, time (min) 5HC DNA 8.98333, AT DNA 8.9, 5mC DNA 8.86667", "value": 6.717, "unit": "µM"}, {"measurement": "succinate", "setting": "n = 1, time (min) 5HC DNA 12.0667, AT DNA 11.9833, 5mC DNA 11.95", "value": 10.1801, "unit": "µM"}, {"measurement": "succinate", "setting": "n = 1, time (min) 5HC DNA 15.1333, AT DNA 15.0667, 5mC DNA 15.0333", "value": 12.0396, "unit": "µM"}, {"measurement": "succinate", "setting": "n = 1, time (min) 5HC DNA 18.2167, AT DNA 18.1333, 5mC DNA 18.1167", "value": 14.7705, "unit": "µM"}, {"measurement": "succinate", "setting": "n = 1, time (min) 5HC DNA 21.3667, AT DNA 21.2333, 5mC DNA 21.2", "value": 16.3534, "unit": "µM"}, {"measurement": "succinate", "setting": "n = 1, time (min) 5HC DNA 24.45, AT DNA 24.3167, 5mC DNA 24.2833", "value": 18.4118, "unit": "µM"}, {"measurement": "succinate", "setting": "n = 1, time (min) 5HC DNA 27.5333, AT DNA 27.3833, 5mC DNA 27.3667", "value": 20.2156, "unit": "µM"}, {"measurement": "succinate", "setting": "n = 1, time (min) 5HC DNA 30.6, AT DNA 30.4667, 5mC DNA 30.45", "value": 21.7474, "unit": "µM"}, {"measurement": "succinate", "setting": "n = 1, time (min) 5HC DNA 33.6833, AT DNA 33.55, 5mC DNA 33.5333", "value": 22.2243, "unit": "µM"}, {"measurement": "succinate", "setting": "n = 1, time (min) 5HC DNA 36.7667, AT DNA 36.6333, 5mC DNA 36.6167", "value": 23.7117, "unit": "µM"}, {"measurement": "succinate", "setting": "n = 1, time (min) 5HC DNA 39.85, AT DNA 39.7167, 5mC DNA 39.7", "value": 24.5115, "unit": "µM"}, {"measurement": "succinate", "setting": "n = 1, time (min) 5HC DNA 42.9333, AT DNA 42.8, 5mC DNA 42.7833", "value": 26.1396, "unit": "µM"}, {"measurement": "succinate", "setting": "n = 1, time (min) 5HC DNA 46.0167, AT DNA 45.8833, 5mC DNA 45.8667", "value": 27.6473, "unit": "µM"}, {"measurement": "succinate", "setting": "n = 1, time (min) 5HC DNA 49.0833, AT DNA 48.9667, 5mC DNA 48.95", "value": 28.232, "unit": "µM"}, {"measurement": "succinate", "setting": "n = 1, time (min) 5HC DNA 52.1667, AT DNA 52.05, 5mC DNA 52.0333", "value": 29.053, "unit": "µM"}, {"measurement": "succinate", "setting": "n = 1, time (min) 5HC DNA 55.25, AT DNA 55.1167, 5mC DNA 55.1167", "value": 29.9694, "unit": "µM"}, {"measurement": "succinate", "setting": "n = 1, time (min) 5HC DNA 58.3333, AT DNA 58.2, 5mC DNA 58.2", "value": 30.8156, "unit": "µM"}, {"measurement": "succinate", "setting": "n = 1, time (min) 5HC DNA 61.4, AT DNA 61.2833, 5mC DNA 61.2833", "value": 32.4581, "unit": "µM"}, {"measurement": "succinate", "setting": "n = 1, time (min) 5HC DNA 64.4833, AT DNA 64.3833, 5mC DNA 64.35", "value": 32.8043, "unit": "µM"}, {"measurement": "succinate", "setting": "n = 2, time (min) 5HC DNA 5.81667, AT DNA 5.61667, 5mC DNA 6.08333", "value": 3.542, "unit": "µM"}, {"measurement": "succinate", "setting": "n = 2, time (min) 5HC DNA 8.88333, AT DNA 8.7, 5mC DNA 9.16667", "value": 5.909, "unit": "µM"}, {"measurement": "succinate", "setting": "n = 2, time (min) 5HC DNA 12.0333, AT DNA 11.7833, 5mC DNA 12.25", "value": 8.271, "unit": "µM"}, {"measurement": "succinate", "setting": "n = 2, time (min) 5HC DNA 15.1167, AT DNA 14.8667, 5mC DNA 15.3167", "value": 11.2722, "unit": "µM"}, {"measurement": "succinate", "setting": "n = 2, time (min) 5HC DNA 18.1833, AT DNA 17.9333, 5mC DNA 18.4", "value": 12.8044, "unit": "µM"}, {"measurement": "succinate", "setting": "n = 2, time (min) 5HC DNA 21.2667, AT DNA 21.0167, 5mC DNA 21.4833", "value": 14.5697, "unit": "µM"}, {"measurement": "succinate", "setting": "n = 2, time (min) 5HC DNA 24.35, AT DNA 24.1, 5mC DNA 24.5667", "value": 16.6119, "unit": "µM"}, {"measurement": "succinate", "setting": "n = 2, time (min) 5HC DNA 27.4333, AT DNA 27.1833, 5mC DNA 27.65", "value": 17.8887, "unit": "µM"}, {"measurement": "succinate", "setting": "n = 2, time (min) 5HC DNA 30.5167, AT DNA 30.2667, 5mC DNA 30.7333", "value": 19.2454, "unit": "µM"}, {"measurement": "succinate", "setting": "n = 2, time (min) 5HC DNA 33.6, AT DNA 33.35, 5mC DNA 33.8167", "value": 20.9427, "unit": "µM"}, {"measurement": "succinate", "setting": "n = 2, time (min) 5HC DNA 36.6833, AT DNA 36.4333, 5mC DNA 36.9", "value": 21.6807, "unit": "µM"}, {"measurement": "succinate", "setting": "n = 2, time (min) 5HC DNA 39.7667, AT DNA 39.5167, 5mC DNA 39.9833", "value": 23.2699, "unit": "µM"}, {"measurement": "succinate", "setting": "n = 2, time (min) 5HC DNA 42.8333, AT DNA 42.6, 5mC DNA 43.0667", "value": 23.7997, "unit": "µM"}, {"measurement": "succinate", "setting": "n = 2, time (min) 5HC DNA 45.9167, AT DNA 45.6833, 5mC DNA 46.15", "value": 25.1342, "unit": "µM"}, {"measurement": "succinate", "setting": "n = 2, time (min) 5HC DNA 49, AT DNA 48.7667, 5mC DNA 49.2333", "value": 26.0623, "unit": "µM"}, {"measurement": "succinate", "setting": "n = 2, time (min) 5HC DNA 52.0833, AT DNA 51.85, 5mC DNA 52.3167", "value": 26.9664, "unit": "µM"}, {"measurement": "succinate", "setting": "n = 2, time (min) 5HC DNA 55.1667, AT DNA 54.9333, 5mC DNA 55.4", "value": 27.9222, "unit": "µM"}, {"measurement": "succinate", "setting": "n = 2, time (min) 5HC DNA 58.25, AT DNA 58.0167, 5mC DNA 58.4833", "value": 28.2598, "unit": "µM"}, {"measurement": "succinate", "setting": "n = 2, time (min) 5HC DNA 61.3333, AT DNA 61.1, 5mC DNA 61.5667", "value": 29.5623, "unit": "µM"}, {"measurement": "succinate", "setting": "n = 2, time (min) 5HC DNA 64.4167, AT DNA 64.1667, 5mC DNA 64.65", "value": 30.2392, "unit": "µM"}, {"measurement": "Relative V0 NgTet1", "setting": "relative to reactions without DNA", "value": 2.3}]}]}
